What was measured:
[1] = Neurologic toxicity from rotarod test in mice; format: organism-based; conditions: mouse, in vivo
[2] = Neurologic toxicity from rotarod test in rats, perorally; format: organism-based; conditions: rat, in vivo, po
Rattus norvegicus [3] = species on record: Rattus norvegicus; test: Compound was evaluated for anticonvulsant activity by maximal electroshock seizure test, perorally in rats; format: functional; conditions: po
Mus musculus [4] = test: Compound was evaluated for anticonvulsant activity by maximal electroshock seizure test, intraperitoneally in mice; format: functional; conditions: ip
[5] = Neurologic toxicity from rotarod test in mice; Value ranges from >100 to <300; format: organism-based; conditions: mouse, in vivo
Rattus norvegicus [6] = species on record: Rattus norvegicus; test: Compound was evaluated for anticonvulsant activity by maximal electroshock seizure test, perorally in rats; Value ranges from >100 […]; format: functional; conditions: po
[7] = Neurologic toxicity from rotarod test in rats, perorally; Value ranges from >100 to <300; format: organism-based; conditions: rat, in vivo, po
Mus musculus [8] = test: Compound was evaluated for anticonvulsant activity by maximal electroshock seizure test, intraperitoneally in mice; Value ranges from >100 […]; format: functional; conditions: ip
Mus musculus [9] = test: Compound was evaluated for anticonvulsant activity by maximal electroshock seizure test, intraperitoneally in mice; Value ranges from >100 to <300; format: functional; conditions: ip
[10] = Neurologic toxicity from rotarod test in mice; Value ranges from >100 […]; format: organism-based; conditions: mouse, in vivo

SMILES: CCN(CC)C(=O)C(C)NC(=O)OCc1ccccc1 (configuration not stated)
- TD50 [1]: 130 mg/kg
- TD50 [2]: > 30 mg/kg
- ED50 (Rattus norvegicus [3]): < 30 mg/kg
- ED50 (Mus musculus [4]): 74 mg/kg

SMILES: CNC(=O)CNC(=O)OCc1ccccc1
- TD50 [5]: < 300 mg/kg
- ED50 (Rattus norvegicus [6]): < 30 mg/kg
- TD50 [7]: > 100 mg/kg
- ED50 (Mus musculus [8]): > 100 mg/kg

SMILES: CN(C)C(=O)CNC(=O)OCc1ccccc1
- TD50 [1]: 130 mg/kg
- TD50 [2]: > 30 mg/kg

SMILES: COCC(NC(C)=O)C(=O)N(C)Cc1ccccc1 (configuration not stated)
- ED50 (Mus musculus [9]): < 300 mg/kg

SMILES: CON(C)C(=O)C(C)NC(=O)OCc1ccccc1 (configuration not stated)
- ED50 (Mus musculus [9]): < 300 mg/kg
- TD50 [5]: < 300 mg/kg
- TD50 [2]: > 30 mg/kg
- ED50 (Rattus norvegicus [3]): ~30 mg/kg

SMILES: CCNC(=O)CNC(=O)OCc1ccccc1
- TD50 [10]: < 300 mg/kg
- TD50 [2]: > 500 mg/kg

SMILES: CCNCC(=O)Nc1c(C)cccc1C
- TD50 [1]: 50 mg/kg
- TD50 [2]: > 500 mg/kg
- ED50 (Rattus norvegicus [3]): 11 mg/kg
- ED50 (Mus musculus [4]): 18 mg/kg

SMILES: CON(C)C(=O)CNC(=O)OCc1ccccc1
- TD50 [1]: 140 mg/kg
- TD50 [2]: > 30 mg/kg

SMILES: CCN(CC)C(=O)CNC(=O)OCc1ccccc1
- TD50 [1]: 91 mg/kg
- TD50 [2]: > 30 mg/kg

SMILES: Cc1cccc(NC(=O)N(C)C)c1
- TD50 [5]: < 300 mg/kg
- TD50 [2]: > 30 mg/kg
